# Active and inactive are the calls of the source. The rule behind the calls is not given here. Peptide text beside a SMILES is read from it.
# What was measured:
# [1] = molecular target: T1, E3 ubiquitin-protein ligase XIAP (Homo sapiens, UniProt P98170); assay: Displacement of fluorescent H-Abu-Arg-Pro-Phe-Lys-NH-FAM-NH2 peptide from XIAP BIR3 domain by fluorescence polarization assay
# [2] = molecular target: T1, E3 ubiquitin-protein ligase XIAP; assay: Inhibition of XIAP in HEK293 cell lysate assessed as release of caspase-9 from BIR3 measuring formation of fluorescent AFC from LEHD-AFC by fluorimetry; assay type: cell-free
# [3] = molecular target: T1, E3 ubiquitin-protein ligase XIAP; assay: Inhibition of XIAP in HEK293 cell lysate assessed as release of caspase-3 from BIR3 measuring formation of fluorescent AFC from DEVD-AFC by fluorimetry; assay type: cell-free
# T1 sequence (P98170 whole entry, the tested form may be a part): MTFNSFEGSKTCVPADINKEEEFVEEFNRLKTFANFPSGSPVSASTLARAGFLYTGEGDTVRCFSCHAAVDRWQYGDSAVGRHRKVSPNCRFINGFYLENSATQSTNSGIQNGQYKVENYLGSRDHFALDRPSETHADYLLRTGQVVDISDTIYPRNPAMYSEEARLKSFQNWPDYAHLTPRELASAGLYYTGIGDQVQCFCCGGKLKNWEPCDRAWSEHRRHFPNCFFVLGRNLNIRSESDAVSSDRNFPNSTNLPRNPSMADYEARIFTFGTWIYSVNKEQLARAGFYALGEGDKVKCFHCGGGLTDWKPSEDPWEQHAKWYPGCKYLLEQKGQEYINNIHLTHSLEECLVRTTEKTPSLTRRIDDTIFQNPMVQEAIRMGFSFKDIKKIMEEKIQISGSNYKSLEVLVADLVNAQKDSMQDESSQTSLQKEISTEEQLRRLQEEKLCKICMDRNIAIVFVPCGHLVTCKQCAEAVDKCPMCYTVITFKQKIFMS
SMILES,Activity [1],IC50 [1] [nM],inhibition [2],inhibition [3]
CC(=O)NCCN(CC(=O)NCCN(CC(=O)NCCN(CC(=O)NCCN(CC(=O)NCCN(CC(=O)NCCN(CC(=O)NCCN(CC(=O)NCCN(CC(=O)N[C@@H](CCCCNC(=O)CCSC(=O)[C@H](C)N)C(N)=O)C(=O)Cn1ccc(N)nc1=O)C(=O)Cn1cnc2c(N)ncnc21)C(=O)Cn1ccc(N)nc1=O)C(=O)Cn1ccc(N)nc1=O)C(=O)Cn1ccc(N)nc1=O)C(=O)Cn1ccc(N)nc1=O)C(=O)Cn1cc(C)c(=O)[nH]c1=O)C(=O)Cn1cc(C)c(=O)[nH]c1=O,inactive,–,–,–
CC[C@H](C)[C@H](NC(=O)[C@@H]1CCCN1C(=O)[C@@H](N)CS)C(=O)N[C@@H](C)C(=O)N[C@@H](CCC(N)=O)C(=O)N[C@@H](CCCCN)C(=O)NCCN(CC(=O)NCCN(CC(=O)NCCN(CC(=O)NCCN(CC(=O)NCCN(CC(=O)NCCN(CC(=O)NCCN(CC(=O)NCC(N)=O)C(=O)Cn1cnc2c(=O)[nH]c(N)nc21)C(=O)Cn1cnc2c(N)ncnc21)C(=O)Cn1ccc(N)nc1=O)C(=O)Cn1cnc2c(N)ncnc21)C(=O)Cn1cc(C)c(=O)[nH]c1=O)C(=O)Cn1ccc(N)nc1=O)C(=O)Cn1ccc(N)nc1=O,inactive,–,–,–
CC[C@H](C)[C@H](NC(=O)[C@@H]1CCCN1C(=O)[C@H](CS)NC(=O)[C@H](C)N)C(=O)NCCOCCOCC(=O)NCCN(CC(=O)NCCN(CC(=O)NCCN(CC(=O)NCCN(CC(=O)NCCN(CC(=O)NCCN(CC(=O)NCCN(CC(=O)NCC(N)=O)C(=O)Cn1cnc2c(=O)[nH]c(N)nc21)C(=O)Cn1cnc2c(N)ncnc21)C(=O)Cn1ccc(N)nc1=O)C(=O)Cn1cnc2c(N)ncnc21)C(=O)Cn1cc(C)c(=O)[nH]c1=O)C(=O)Cn1ccc(N)nc1=O)C(=O)Cn1ccc(N)nc1=O,–,560,Dose-dependent effect,Dose-dependent effect
CC[C@H](C)[C@H](NC(=O)[C@@H]1CCCN1C(=O)[C@H](CS)NC(=O)[C@H](C)N)C(=O)O (H-ACPI-OH),–,650,–,–
CC[C@H](C)[C@H](NC(=O)[C@@H]1CCCN1C(=O)[C@@H](N)CS)C(=O)NCCOCCOCC(=O)NCCN(CC(=O)NCCN(CC(=O)NCCN(CC(=O)NCCN(CC(=O)NCCN(CC(=O)NCCN(CC(=O)NCCN(CC(=O)NCC(N)=O)C(=O)Cn1cnc2c(=O)[nH]c(N)nc21)C(=O)Cn1cnc2c(N)ncnc21)C(=O)Cn1ccc(N)nc1=O)C(=O)Cn1cnc2c(N)ncnc21)C(=O)Cn1cc(C)c(=O)[nH]c1=O)C(=O)Cn1ccc(N)nc1=O)C(=O)Cn1ccc(N)nc1=O,inactive,–,–,–
CC[C@H](C)[C@H](NC(=O)[C@@H]1CCCN1C(=O)[C@H](CS)NC(=O)[C@H](C)N)C(=O)N[C@@H](C)C(=O)N[C@@H](CCC(N)=O)C(=O)N[C@@H](CCCCN)C(=O)NCCN(CC(=O)NCCN(CC(=O)NCCN(CC(=O)NCCN(CC(=O)NCCN(CC(=O)NCCN(CC(=O)NCCN(CC(=O)NCC(N)=O)C(=O)Cn1cnc2c(=O)[nH]c(N)nc21)C(=O)Cn1cnc2c(N)ncnc21)C(=O)Cn1ccc(N)nc1=O)C(=O)Cn1cnc2c(N)ncnc21)C(=O)Cn1cc(C)c(=O)[nH]c1=O)C(=O)Cn1ccc(N)nc1=O)C(=O)Cn1ccc(N)nc1=O,–,1520,Dose-dependent effect,Dose-dependent effect

# Reference: ChEMBL document CHEMBL1938340, “DNA-instructed acyl transfer reactions for the synthesis of bioactive peptides” (Bioorg Med Chem Lett, 2011)
